Assay results: PubChem BioAssay (NCI)
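In this assay, cells in 96-well plates receive the compound at five concentrations for 48 hours. Endpoints are linearly interpolated between the surrounding concentrations. TGI marks complete inhibition of growth.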

Columns and labels:
Experiment in all cases: NCI tumour cell line growth inhibition, 48 h
K-562 leukemia = test system: K-562 leukemia
SNB-19 CNS = test system: SNB-19 CNS
COLO 205 colon = test system: COLO 205 colon
IGROV1 ovarian = test system: IGROV1 ovarian
M14 melanoma = test system: M14 melanoma
SNB-75 CNS = test system: SNB-75 CNS
U251 CNS = test system: U251 CNS
DMS 114 small cell lung = test system: DMS 114 small cell lung
HT29 colon = test system: HT29 colon
A549 NSCLC = test system: A549 NSCLC
OVCAR-5 ovarian = test system: OVCAR-5 ovarian
HCT-116 colon = test system: HCT-116 colon
SF-268 CNS = test system: SF-268 CNS
TK-10 renal = test system: TK-10 renal
NCI-H226 lung = test system: NCI-H226 lung
A498 renal = test system: A498 renal
CAKI-1 renal = test system: CAKI-1 renal
BT-549 breast = test system: BT-549 breast
MDA-N = test system: MDA-N
DU-145 prostate = test system: DU-145 prostate

Compound | TGI (K-562 leukemia) [µM] | TGI (SNB-19 CNS) [µM] | TGI (COLO 205 colon) [µM] | TGI (IGROV1 ovarian) [µM] | TGI (M14 melanoma) [µM] | TGI (SNB-75 CNS) [µM] | TGI (U251 CNS) [µM] | TGI (DMS 114 small cell lung) [µM] | TGI (HT29 colon) [µM] | TGI (A549 NSCLC) [µM] | TGI (OVCAR-5 ovarian) [µM] | TGI (HCT-116 colon) [µM] | TGI (SF-268 CNS) [µM] | TGI (TK-10 renal) [µM] | TGI (NCI-H226 lung) [µM] | TGI (A498 renal) [µM] | TGI (CAKI-1 renal) [µM] | TGI (BT-549 breast) [µM] | TGI (MDA-N) [µM] | TGI (DU-145 prostate) [µM]
NC(=O)NC1=NC(Cc2ccccc2)C(=O)N1Cc1ccccc1 (centres undefined) | > 100 | > 100 | > 100 | > 100 | > 100 | > 100 | > 100 | > 100 | > 100 | > 100 | > 100 | > 100 | > 100 | > 100 | > 100 | – | – | – | – | –
CC(=O)OC1CC2C(C)(C)C(=O)C=C[C@]2(C)C2CCC3(C)C(c4ccoc4)[C@@H](O)[C@H]4O[C@]43[C@]12C (some centres undefined) | 39.5 | 59.6 | 37.6 | 46.2 | 37.7 | 57.3 | 27.8 | 41.9 | 40.3 | 85.7 | 50 | 51.9 | 51.8 | 88.7 | 33.5 | 49.7 | 45.6 | – | – | –
CC(=O)c1ccc(NC(=O)C(=O)C(C(=O)c2ccc(Cl)c(Cl)c2)C2OC(=O)c3ccccc32)cc1 (centres undefined) | > 100 | > 100 | 28.8 | 65.5 | 41 | – | 23 | 46.3 | 67.7 | 58.2 | 71.5 | 25.8 | 38.2 | > 100 | 24.6 | 37.6 | > 100 | – | – | –
c1ccc(CN2CCCCC(Sc3ccccc3)CC2)cc1 (centres undefined) | 35 | > 100 | 26.2 | > 100 | 32 | > 100 | 31.7 | 44.6 | 33.5 | > 100 | 45.1 | 43.9 | > 100 | > 100 | 85.2 | > 100 | 69.6 | – | – | –
C=C(Br)C(C)(Br)CCC(Br)C(C)(C)Br (centres undefined) | > 100 | – | 35.8 | 39 | 61.3 | 89.2 | 38.4 | 31.6 | > 100 | > 100 | > 100 | 47.7 | 91 | > 100 | > 100 | – | > 100 | – | – | –
CCCCCNC(=O)c1c(O)[nH]c(=S)[nH]c1=O | > 100 | > 100 | > 100 | > 100 | > 100 | > 100 | > 100 | > 100 | > 100 | > 100 | > 100 | > 100 | > 100 | > 100 | > 100 | > 100 | > 100 | – | – | –
CN(C)C(=S)N/N=C(\C(=N/NC(=S)N(C)C)c1ccccn1)c1ccccn1 | > 100 | 31.8 | 24.2 | 27.1 | 42.3 | 27.4 | 20.4 | – | 17.6 | 27.3 | 55.1 | 25.1 | 23.7 | 22.2 | 28.2 | 30.2 | 34.1 | 35.5 | > 54 | 10.8
CC1=CC(=O)c2c(C=O)c(O)c(O)c(C(C)C)c2C1=O | > 100 | > 100 | 57.4 | 63.9 | > 100 | > 100 | 47.4 | 51.5 | – | – | > 92.2 | 38.5 | 77.2 | – | 54.8 | 78 | 52.9 | – | – | –
C=C(C)[C@H]1C[C@@H]2O[C@@](O)(/C(C)=C\C(=O)/C=C(/C)C[C@H]3OC(=O)[C@@]24O[C@H]34)[C@@H]1O | > 100 | > 100 | > 100 | > 100 | > 100 | > 100 | > 100 | – | > 100 | > 100 | > 100 | > 100 | > 100 | > 100 | > 100 | > 100 | > 100 | > 100 | > 100 | > 100
